Experimental data published in patent US5482934A, “Pregna-1,4-diene3,20-dione-16-17-acetal-21 esters, process for their preparation, composition, and methods for the treatment of inflammatory conditions” (priority 1994, dated 1996).

Tests used:
thymus = tested on: thymus; design: species or system Male Wistar rats; conditions: rat, in vivo, 10080 min
Excerpt: All of the steroids described in this invention are pharmacologically active compounds. The glucocorticoid activity of these products was studied in comparison with that of budesonide: pregna-1,4-diene-3,20-dione, 16,17-butylidenebis(oxy)-11-21-dihydroxy-(11β,16α). The pharmacologic action on the acetonides triamcinolone acetonide and flunisolide was also studied.
(§1) Anti-inflammatory effects of the compounds were screened in the cotton pellet granuloma bioassay for identification of lead compounds. (Meier et al., Eperimentia 6, 469, 1950). Male Wistar rats were used, ranging in weight between 90 and 120 g, at the rate of 10 animals per group, previously identified and quartered in individual cages. The animals had free access to feed and drink throughout the trial.
(§2) Cotton pellets weighing exactly 20 mg were prepared, sterilized for 2 hr. at 160° C. soaked with 50 λl solution of the product or with the solvent before implantation, and subsequently the solvent is evaporated before application. The implantation was performed subcutaneously in the axillary zone of the animals previously anesthetized with ether (right axilla pellet with product, left axilla pellet with solvent). Animals in which pellets without product were implanted were used as controls.
(§3) The drug was applied in alcohol solution at 4 dosage levels. Once the pellets were implanted, the animals were kept under normal rearing conditions, isolated for 7 days and then weighed, after which they were sacrificed by exsanguination.
Extraction and weighing of the thymus and adrenals were performed in all animals and a fluorometric determination of the cortisol plasma levels was made. We consider the variation in these parameters indicative of the systemic glucocorticoid activity of the products.
(§4) Anti-inflammatory ED50 (topical effect), thymus inhibition ED50 (systemic effect), therapeutic index (systemic ED50 /topical ED50), and the therapeutic index relative to budesonide (=1).
(§5) All of the ED50 values were calculated from the linear regression lines with the confidence limits.

[1] = tested on: cotton-pellet-induced granuloma; assay: cotton pellet granuloma bioassay, topical anti-inflammatory activity (inhibitory effect on granuloma weight); type: in vivo, Male Wistar rats; conditions: for Topical anti-inflammatory activity (Cotton Pellet), ED50: local application on implanted pellet, 4 dosage levels, 7 days; for Therapeutic index systemic ED50 / topical ED50: thymus inhibition ED50 / cotton pellet ED50, 10080 min
Excerpt: The glucocorticoid activity of these products was studied in comparison with that of budesonide: pregna-1,4-diene-3,20-dione, 16,17-butylidenebis(oxy)-11-21-dihydroxy-(11β,16α). The pharmacologic action on the acetonides triamcinolone acetonide and flunisolide was also studied.
as §1, §2, §3
The topical activity was determined by the inhibitory effect on the weight of the cotton-pellet-induced granuloma; the granulomas were extracted and weighed (pellet and connective tissue surrounding them, dried for 24 hr in a 60° oven, and weighed).
as §4, §5

[2] = corticosteroids used in aerosol form; cited from earlier work

Row | SMILES | Systemic glucocorticoid activity (Thymus inhibition), ED50 (thymus) [μg/pellet] | Topical anti-inflammatory activity (Cotton Pellet), ED50 [1] [μg/pellet] | Therapeutic index systemic ED50 / topical ED50 [1] | effect in aerosol form [2]
1 | CC1(C)O[C@@H]2C[C@H]3[C@@H]4CCC5=CC(=O)C=C[C@]5(C)[C@@]4(F)[C@@H](O)C[C@]3(C)[C@]2(C(=O)CO)O1 (stereo in doubt) [TRIAMCINOLONE ACETONIDE, triamcinolone acetonide, reference compound] | 156.4 | 220.7 | 0.7 | highly positive effect
2 | CC1(C)O[C@@H]2C[C@H]3[C@@H]4C[C@H](F)C5=CC(=O)C=C[C@]5(C)[C@H]4[C@@H](O)C[C@]3(C)[C@]2(C(=O)CO)O1 [FLUNISOLIDE, flunisolide, reference compound] | 156 | 351.6 | 0.44 | highly positive effect
3 | CCCC1O[C@@H]2C[C@H]3[C@@H]4CCC5=CC(=O)C=C[C@]5(C)[C@H]4[C@@H](O)C[C@]3(C)[C@]2(C(=O)CO)O1 (stereo partly drawn) [BUDESONIDE, pregna-1,4-diene-3,20-dione, 16,17-butylidenebis(oxy)-11-21-dihydroxy-(11β,16α), reference compound] | 178.6 | 163.6 | 1.09 | highly positive effect
4 | CCC(=O)OCC(=O)[C@@]1(OC(=O)CC)[C@@H](C)C[C@H]2[C@@H]3CCC4=CC(=O)C=C[C@]4(C)[C@@]3(Cl)[C@@H](O)C[C@@]21C [beclomethasone dipropionate] |  |  |  | highly positive effect
5 | CCCCC1OC2CC3C4CCC5=CC(=O)C=CC5(C)C4C(O)CC3(C)C2(C(=O)COC(C)=O)O1 [Compound 10, (22R,S)-of pregna 1,4-diene-3,20-dione-21-(acetyloxy)-11-hydroxy-16,17-(pentylidene) bis(oxy)-(11β,16α)] | 583.2 | 59.9 | 9.7 | 
6 | CC(C)C(=O)OCC(=O)C12OC(C3CCCCC3)OC1CC1C3CC(F)C4=CC(=O)C=CC4(C)C3(F)C(O)CC12C [Compound 13, (22R,S)-pregna 1,4-diene-3,20-dione-16,17-(cyclohyxylmethylidine)-bis-(oxy)-6,9-difluoro-11-hydroxy-21-(methyl-1-oxo-propoxy)-(11β,16α)] | 54 | 4.5 | 12 | 
7 | CCCCC(=O)O[C@]1(C(=O)CO)[C@@H](C)C[C@H]2[C@@H]3CCC4=CC(=O)C=C[C@]4(C)[C@@]3(F)[C@@H](O)C[C@@]21C [betamethasone valerate] |  |  |  | highly positive effect
8 | CCCCC1OC2CC3C4CCC5=CC(=O)C=CC5(C)C4C(O)CC3(C)C2(C(=O)COC(C)=O)O1 (centres unmarked) [Compound 12] | 592.2 | 74.7 | 7.9 | 
9 | CC(C)C(=O)OCC(=O)C12OC(C3CCCCC3)OC1CC1C3CC(F)C4=CC(=O)C=CC4(C)C3(F)C(O)CC12C [Compound 14, (22S)-pregna-1,4-diene-3,20-dione-16,17-(cyclohexylmethylidine)-bis-(oxy)-6,9-difluoro-11-hydroxy-21-(s-methyl-1-oxo-propoxy)-(11β,16α)] | 49 | 3.6 | 13.6 | 
10 | CC(C)C(=O)OCC(=O)C12OC(C3CCCCC3)OC1CC1C3CCC4=CC(=O)C=CC4(C)C3C(O)CC12C (centres unmarked) [Compound 9] | 667.1 | 25.4 | 26.2 | 
11 | CC(C)C(=O)OCC(=O)C12OC(C3CCCCC3)OC1CC1C3CCC4=CC(=O)C=CC4(C)C3C(O)CC12C [Compound 7, (22R,S)-pregna 1,4-diene-3,20-dione, 16,17-[[cyclohexylmethylidyne]bis (oxy)]-11-hydroxy-21-(2-methyl-1-oxo-propoxy)-(11β,16α)] | 614.7 | 21.7 | 28.3 | 
12 | CCCCC1OC2CC3C4CCC5=CC(=O)C=CC5(C)C4C(O)CC3(C)C2(C(=O)COC(C)=O)O1 [Compound 11, (22S)-pregna 1,4-diene-3,20-dione-21-(acetyloxy)-11-hydroxy-16,17-(pentylidene)-bis-(oxy)-(11β,16α)] | 555.3 | 43 | 12.9 | 
13 | CC(C)C(=O)OCC(=O)C12OC(C3CCCCC3)OC1CC1C3CCC4=CC(=O)C=CC4(C)C3C(O)CC12C [Compound 8, (22,S)-pregna 1,4-diene-3,20-dione 16,17-[[cyclohexyl-methylidyne]bis (oxy)]-11-hydroxy-21-(2-methyl-1-oxo-propoxy)-(11β,16α)] | 608 | 20.5 | 29.6 | 
14 | CC(C)C(=O)OCC(=O)C12OC(C3CCCCC3)OC1CC1C3CC(F)C4=CC(=O)C=CC4(C)C3(F)C(O)CC12C (centres unmarked) [Compound 15] | 56.3 | 5.2 | 10.8 | 
